One data set concerns CCNK. The data set can be described thus: Immunoblotting of CCNK in MDA-MB-231 cells. The class given is cell-based, human. Particulars: MDA-MB-231, increasing concentrations, 15 h. The protocol: The global proteomic selectivity of ZLC491 was investigated by using the tandem mass tag (TMT) labeled mass-spectrometry. […] CDK13 was not detected in either degrader treatment groups or DMSO control groups, likely due to its insufficient cellular expression for mass spectrometry detection.
Generally, the tested cells were washed by ice-cold PBS buffer (Gibco) and lysed with an SDS lysis buffer (62.5 mM Tris, 2% w/v SDS, 10 glycerol, 50 mM DTT, 0.01% w/v bromophenol blue) on ice, after which the protein lysate samples were collected to 1.5 mL microcentrifuge tubes and treated with ultrasonic for 10 s, following with a 100 °C incubation for 10 min and a 4 °C centrifugation of 12000 rpm for 10 min. An equal amount of protein was loaded to 4–8% Bis-Tris gels and underwent an SDS-PAGE electrophoresis at 55V for 30 min and 95V for 90 min. Proteins on gels were then transferred to a polyvinylidene difluoride (PVDF) membrane (Bio-Rad) with a wet electro transfer system (Bio-Rad). The PVDF membrane was cut into bands and incubated in a blocking reagent (5% defatted milk powder dissolved in TBST) at room temperature for 1–2 h. Incubate membrane and primary antibody (at the appropriate dilution and diluent as recommended in the product webpage) at 4 °C for 12–14 h, followed with three times washes by TBST. […]

The next data set concerns DDR genes. The data set can be described thus: RT-qPCR of DDR genes in MDA-MB-231 cells. Conditions: MDA-MB-231, different doses, 12 h. Format: cell-based, human. The protocol: We next evaluated the effect of ZLC491 on the expression of DDR genes regulated by CDK12/13.
(A) Transcription level of DDR genes in MDA-MB-231 cells determined by RT-qPCR upon the treatment with vehicle or ZLC491 at different doses for 12 h, ROR1 was used as a negative control; (B) immunoblotting of DDR proteins in MDA-MB-231 cells after the treatment of ZLC491 at different doses for 48 h; (C) cell antiproliferative activity of ZLC491 in multiple TNBC cells as well as several noncancerous cells. Cells were treated with the compound for 5 days; (D,E) antiproliferative potency of cisplatin or olaparib alone or combined with ZLC491 at different doses in MDA-MB-231 cells for 5 days. Data are plotted using the percentage of absorbance relative to DMSO controls. (F) IC50 values and combination index (CI) in drug combination assay. In this model, CI scores estimate the interaction between the two drugs. If CI < 1, the drugs have a synergistic effect and if CI > 1, the drugs have an antagonistic effect. […]
RNA utilized for RT-qPCR was extracted as outlined below. […] Expression was normalized to GAPDH, and fold change in expression was calculated relative to the indicated conditions using ΔΔCt method.
For orientation: Quantitative PCR measures a nucleic acid by following its amplification.

A further data set is described as follows: Pharmacokinetics in rats. Conditions: male, Sprague-Dawley, rat, plasma. The class given is in vivo, rat. The procedure:
We further evaluated the in vivo PK properties of compound ZLC491 and the counterpart 4m (without F substitution) in rats, and the results were summarized in Table 2. […] The PK profiles of F-containing compound ZLC491 were further improved.
The pharmacokinetic investigation was taken by Shanghai Medicilon Inc. (Project Code: 26048-23001-NG). Sprague–Dawley male rats (Specific pathogen Free (SPF), provided by Zhejiang Vital River Laboratory Animal Technology Co. Ltd.) were dosed with ZLC491 solution formulation (5% DMSO, 10% Solutol, 85% normal saline, 2.5 mg/kg for intravenous dose, 10 mg/kg for oral dose) or compound 4m solution formulation (5% DMSO, 10% Solutol, 85% (20%HP-β-CD), 2.5 mg/kg for intravenous dose, 10 mg/kg for oral dose). Blood samples were collected at 0.083, 0.25, 0.5, 1, 2, 4, 8, and 24 h in intravenous administration, 0.25, 0.5, 1, 2, 4, 6, 8, and 24 h in oral administration. The blood samples were collected from sets of three rats at each time point in labeled microcentrifuge tubes containing heparin sodium as an anticoagulant. Plasma samples were separated by centrifugation (2–8 °C, 6800g for 6 min) within 1 h and stored below −80 °C until bioanalysis. All samples were processed for analysis by precipitation using acetonitrile and analyzed with a partially validated LC/MS/MS method. Pharmacokinetic parameters were calculated using the noncompartmental analysis tool of WinNonlin Enterprise software.

The record followed here is article PMC11513923, “Discovery of ZLC491 as a Potent, Selective, and Orally Bioavailable CDK12/13 PROTAC Degrader” (Journal of Medicinal Chemistry, 2024).

The term AUC(0-t) denotes the area under the concentration-time curve up to a stated or last time point. A lower AUC(0-t) goes with low exposure. The Cmax is the highest concentration seen after dosing. As a reminder, the clearance is the volume of plasma or blood freed of the substance per unit of time. A high value points to efficient removal. By half-life is commonly meant the time needed for the level to fall by half in the phase considered. By bioavailability is commonly meant the share of a dose that reaches the circulation, judged against a reference dose that is usually intravenous. Consider `N#Cc1ccc(N[C@H]2CC[C@H](N(C(=O)NCc3ccccc3)c3ccc(N4CCN(C5CCN(c6cc7c(cc6F)C(=O)N(C6CCC(=O)NC6=O)C7=O)CC5)CC4)cc3)CC2)nc1` (stereo partly shown) [ZLC491, 3-Benzyl-1-((1r,4r)-4-((5-cyanopyridin-2-yl)amino)cyclohexyl)-1-(4-(4-(1-(2-(2,6-dioxopiperidin-3-yl)-6-fluoro-1,3-dioxoisoindolin-5-yl)piperidin-4-yl)piperazin-1-yl)phenyl)urea], for which, in the data set on CCNK, the “CCNK degradation by Western blotting” value was “dose-dependently degraded”. In addition, the “transcription of DDR genes (ATM, ATR, BRCA1, BRCA2, FANCD2, SMARCC)” value with DDR genes was “concentration-dependently suppressed”. In “Pharmacokinetics in rats” (iv, i.v. 2.5 mg/kg), this molecule had an AUC(0-t) at 24 h of 6820 ng·h/mL, a Cmax at 24 h of 4590 ng/mL, a clearance at 24 h of 6.38 mL/min/kg and a half-life at 24 h of 2.46 h. This molecule yielded a bioavailability at 24 h in the data set “Pharmacokinetics in rats” (oral bioavailability, p.o. 10 mg/kg vs i.v. 2.5 mg/kg) of 46.8%. Further, in “Pharmacokinetics in rats” (po, p.o. 10 mg/kg), the AUC(0-t) at 24 h is 12800 ng·h/mL, the highest level (Cmax at 24 h) was 1310 ng/mL and the half-life at 24 h was 2.92 h.
